The record followed here is PMC9416004, “A Versatile Class of 1,4,4-Trisubstituted Piperidines Block Coronavirus Replication In Vitro” (Pharmaceuticals, 2022).

The target of data set [1] is SARS-CoV-2 nsp5 main protease (M^pro) (Severe acute respiratory syndrome coronavirus 2, UniProt P0DTD1). Briefly: FRET-based M^pro enzymatic assay. In kind it is biochemical. Here is the method:
Serial dilutions of the compounds were incubated with purified nsp5 protein in the presence of substrate (Dabcyl-KTSAVLQ↓SGFRKM-Edans-NH2), and peptide cleavage was followed by an increase in fluorescence. The compounds’ IC50 values were determined by Hill curve fitting. Values are the mean ± SEM (N = 3).
After transforming the pGEX-6P-1 plasmid in E. coli BL21 DE3 gold, nsp5 production was stimulated by overnight induction with 250 μM IPTG at a temperature of 17 °C. After centrifugation, the bacteria were resuspended in buffer consisting of: 50 mM Tris pH 8; 300 mM NaCl; 5 mM MgSO4; 1 mM PMSF; 10 μg/mL DNAse I; 0.25 mg/mL Lysozyme; 0.1%Triton X-100; and 10% glycerol. The cells were lysed by three cycles of sonication and centrifugation. The nsp5 protein was bound to Co-NTA agarose beads and eluted in lysis buffer containing 250 mM of imidazole. Next, the protein product was concentrated on a Vivaspin 20 centrifugal concentrator (10 kDa cut-off; GE Healthcare) and imidazole was removed by dialysis. Finally, the purified nsp5 was stored at −80 °C with 50% glycerol.
M^pro enzymatic assay. The fluorescence resonance energy transfer (FRET)-based protease assay was performed in black 384-well plates. Briefly, serial dilutions of the compounds were incubated with 80 nM nsp5 protein and 5 μM peptide substrate (Dabcyl-KTSAVLQ↓SGFRKM-Edans-NH2; Genscript) in buffer consisting of: 20 mM HEPES pH 6.5; 120 mM NaCl; 0.4 mM EDTA; 4 mM dithiothreitol; and 10% glycerol. The final DMSO content was 0.5%. Cleavage of the substrate was monitored for 40 min by measuring the increasing fluorescence in a Tecan Safire 2 plate reader (wavelength settings: excitation at 335 nm and emission at 493 nm). For each condition, enzyme activity was derived from the slope for the linear part of the curve and expressed relative to the activity in the condition receiving no compound. To determine the IC50 values, GraphPad Prism software was used to plot the % of enzyme activity against compound concentration and then fit the curves according to the equation Y = 100/(1 + (X/IC50)^HillSlope).

Data set [2] has as its system HCoV-229E. Briefly: Cytopathic effect (CPE) reduction assay with HCoV-229E in HEL cells. The settings on record: for EC50: Human coronavirus 229E, 120 h, HCoV-229E-infected HEL cells, five days at 35 °C; for Selectivity Index MTS: ratio of CC50 to EC50-MTS; for Selectivity Index MTS / Selectivity Index Microscopy: only values of 10 or higher shown; for Selectivity Index Microscopy: ratio of MCC to EC50-microscopy. It counts as cell-based, human coronavirus 229E.

For data set [3], the system named is HCoV-229E. As to the kind of experiment: One-cycle time-of-compound addition (TOA) assay with HCoV-229E in HEL cells. It counts as cell-based, human coronavirus 229E.
A further data set deals with SARS-CoV-2. As to the kind of experiment: RT-qPCR-based SARS-CoV-2 viral load reduction assay in A549-AT cells. It counts as cell-based. Particulars: for Antiviral activity EC99: 100-fold reduction in viral RNA copies in supernatant at day 3 p.i.; for EC90: Severe acute respiratory syndrome coronavirus 2, 72 h, 10-fold reduction in viral RNA copies in supernatant at day 3 p.i., read-out: Antiviral activity EC90. Background: In qPCR the cycle at which signal appears reflects the starting amount.

In data set [4] the test system is human embryonic lung (HEL) fibroblast cells. Particulars: mock-infected HEL cells; microscopically visible alterations in cell morphology.
The nature of data set [5]: in vitro. Particulars: human.
Data set [6] is described as follows: in vitro. The settings on record: human. The source holds these as a separate data set.
In data set [7] the target is SARS-CoV-2 nsp14 N7-MTase (Severe acute respiratory syndrome coronavirus 2, UniProt P0DTD1). Briefly: Radioactive filter-binding MTase assay, nsp14. It counts as biochemical. The settings on record: compound concentration of 200 µM.
For data set [8], the target named is SARS-CoV-2 nsp10/nsp16 2'O-MTase (Severe acute respiratory syndrome coronavirus 2, UniProt P0DTD1). Briefly: Radioactive filter-binding MTase assay, nsp10/nsp16. In kind it is biochemical. The settings on record: compound concentration of 200 µM.
Where [9] appears, read: protection against virus-induced CPE by MTS cell viability assay, read-out: Antiviral EC50 MTS.
Where [10] appears, read: protection against virus-induced CPE by microscopic scoring, read-out: Antiviral EC50 Microscopy.
[11] abbreviates: compound added at 8 h p.i., HEL cells lysed at 16 h p.i., 33 15 µM, GC376 25 µM, GS-441524 20 µM, K22 15 µM.

Read-outs that look alike come from different tables or passages of the source.

As usually defined, the IC50 is the concentration that inhibits the measured activity by half. A word on the EC50: it is the concentration giving half of the maximal effect. A word on the EC90: it is the point of the concentration-response curve where the effect stands at 90%. In data set [1], `COC(=O)C[C@H](NC(=O)OCc1ccccc1)C(=O)N(Cc1ccccc1)C1(C(=O)NCc2ccccc2)CCN(Cc2ccccc2)CC1` [Compound 33] gave an IC50 of 64 ± 8 µM. The concentration giving a half-maximal response (EC50) in the data set on HCoV-229E [2] (setting [9]) amounted to 3.3 ± 0.4 µM. Moreover, in the data set on HCoV-229E [2] (setting [10]), the EC50 worked out at 3 ± 0.1 µM. In the data set on HCoV-229E [2], the “Selectivity Index MTS” value is listed as more than 30 and the “Selectivity Index Microscopy” value was more than 33. In addition, the “inhibition of viral RNA synthesis” value in the data set on HCoV-229E [3] (setting [11]) is recorded as “losing some activity”. For the same compound, in the data set with SARS-CoV-2, the “Antiviral activity EC99” value is listed as 14 µM and the EC90 was found to be 9.3 µM. Also, the “Cytotoxicity MCC (minimal cytotoxic concentration)” value (“Cytotoxicity MCC” below) in data set [4] is recorded as more than 100 µM. This compound also had a CC50 in the data set “in vitro [5]” of more than 100 µM. The CC50 in the data set “in vitro [6]” worked out at 90 µM.
What is called inhibition is the relative decrease from the control value, in per cent. In turn, `COC(=O)C[C@H](NC(=O)OCc1ccccc1)C(=O)N(Cc1ccc(F)cc1)C1(C(=O)NCc2ccccc2)CCN(Cc2ccccc2)CC1` [Compound 34] displayed a concentration for half-maximal inhibition (IC50) in [1] of 38 ± 5 µM. Besides, the EC50 in the data set on HCoV-229E [2] (setting [9]) was 3.4 ± 0.4 µM. The half-maximal effective concentration (EC50) with HCoV-229E [2] (setting [10]) is 3.1 ± 0.1 µM. In addition, in the data set with HCoV-229E [2], the “Selectivity Index MTS” value came to 22 and the “Selectivity Index Microscopy” value is reported as 26. Further, in the data set on SARS-CoV-2, the “Antiviral activity EC99” value was 13 µM and the EC90 is 8 µM. Besides, the inhibition at 200 µM in data set [7] came to 80%. Besides, the “Cytotoxicity MCC” value in data set [4] turned out to be 81 µM.
As for `CC(C)(C)OC(=O)N[C@@H](Cc1ccccc1)C(=O)N(Cc1ccc(F)cc1)C1(C(=O)NCc2ccccc2)CCN(Cc2ccccc2)CC1` [Compound 45], it took 15 ± 2 µM to reach half-maximal inhibition in [1] (IC50). Besides, the half-maximal effective concentration (EC50) in the data set with HCoV-229E [2] (setting [9]) came to 1.1 ± 0.2 µM; with HCoV-229E [2] (setting [10]), 0.85 ± 0.07 µM. In addition, the “Cytotoxicity MCC” value in data set [4] was found to be 50 µM. For the same compound, the CC50 in the data set “in vitro [5]” is 4.4 ± 0.8 µM.
As to `CC(C)(C)OC(=O)N[C@@H](Cc1ccccc1)C(=O)N(Cc1ccccc1)C1(C(=O)NCc2ccccc2)CCN(Cc2ccccc2)CC1` [Compound 46], in [1], the IC50 was 22 ± 2 µM. For the same compound, the 50% effective concentration (EC50) with HCoV-229E [2] (setting [9]) turned out to be 4.5 ± 0.2 µM. Moreover, the EC50 in the data set with HCoV-229E [2] (setting [10]) is 7.4 ± 1.3 µM. Moreover, in the data set with HCoV-229E [2], the “Selectivity Index MTS” value is 17 and the “Selectivity Index Microscopy” value is not below 14. In [4], the “Cytotoxicity MCC” value was not below 100 µM. The compound also yielded a CC50 in “in vitro [5]” of 75 µM.
As for `Cc1ccc(CC(NC(=O)OC(C)(C)C)C(=O)N(Cc2ccccc2)C2(C(=O)NCc3ccccc3)CCN(Cc3ccccc3)CC2)cc1` (centres unmarked) [Compound 52, Tert-butyl(1-(benzyl(1-benzyl-4-benzylcarbamoylpiperidin-4-yl)amino)-1-oxo-3-(p-tolyl)propan-2-yl)carbamate], the concentration for half-maximal inhibition (IC50) in [1] turned out to be 14 ± 4 µM. Moreover, the EC50 in the data set on HCoV-229E [2] (setting [9]) was found to be 4.7 ± 0.6 µM. The concentration for a half-maximal effect (EC50) with HCoV-229E [2] (setting [10]) was 6.6 ± 1.8 µM. Besides, in the data set with HCoV-229E [2], the “Selectivity Index MTS” value is more than 21 and the “Selectivity Index Microscopy” value is given as not below 15. In addition, in the data set on SARS-CoV-2, the “Antiviral activity EC99” value is listed as 3.9 µM and the EC90 amounted to 1.7 µM. Also, the “Cytotoxicity MCC” value in data set [4] was not below 100 µM.
For `CC(C)(C)OC(=O)NC(Cc1ccccc1)C(=O)N(Cc1ccccc1)C1(C(=O)NCc2ccccc2)CCN(Cc2ccc(F)cc2)CC1` (centres unmarked) [Compound 60, Tert-butyl(1-(benzyl(4-benzylcarbamoyl-1-(4-fluorobenzyl)piperidin-4-yl)amino)-1-oxo-3-phenylpropan-2-yl)carbamate], the concentration for half-maximal inhibition (IC50) in data set [1] is 68 ± 21 µM. The 50% effective concentration (EC50) in the data set on HCoV-229E [2] (setting [9]) is 4 ± 0.1 µM. Besides, in the data set on HCoV-229E [2] (setting [10]), the EC50 was found to be 4.5 ± 0.2 µM. Further, in the data set with HCoV-229E [2], the “Selectivity Index MTS” value was more than 25. For the same compound, the inhibition at 200 µM in [8] is 80%. For the same compound, in the data set with SARS-CoV-2, the “Antiviral activity EC99” value worked out at 5.2 µM and the 90% effect concentration (EC90) stood at 2.2 µM. Also, in [4], the “Cytotoxicity MCC” value is reported as not below 100 µM.
`CC(C)(C)OC(=O)NC(Cc1ccccc1)C(=O)N(Cc1ccccc1)C1(C(=O)NCc2ccccc2)CCN(Cc2ccc([N+](=O)[O-])cc2)CC1` (centres unmarked) [Compound 63, Tert-butyl(1-(benzyl(4-benzylcarbamoyl-1-(4-nitrobenzyl)piperidin-4-yl)amino)-1-oxo-3-phenylpropan-2-yl)carbamate]: the IC50 in [1] was determined as 196 ± 39 µM. Further, the “IC50 on SARS-CoV-2 M^pro enzyme activity” value in [1] (80 nM nsp5, 5 μM Dabcyl-KTSAVLQSGFRKM-Edans-NH2 substrate, mean ± SEM (N = 3)) was “only marginal activity”. Also, the figures for the concentration giving a half-maximal response (EC50) in the data set on HCoV-229E [2] (setting [9]) and in the data set with HCoV-229E [2] (setting [10]) were 77 ± 9 µM and 82 ± 15 µM, respectively. Also, in [4], the “Cytotoxicity MCC” value is given as not below 100 µM. Further, the CC50 in “in vitro [5]” was more than 100 µM.
As for `CCOC(=O)[C@H]1O[C@@H]1C(=O)N[C@@H](CC(C)C)C(=O)NCCC(C)C` [Compound E64d], in the data set with HCoV-229E [3] (compound addition delayed until 4 h p.i., HEL cells lysed at 16 h p.i., E64d 15 µM, bafilomycin 0.00625 µM), the “inhibition of viral RNA synthesis” value turned out to be 46%.
Take `O=C(N/C(=C\c1ccccc1)C(=O)N1CCC(O)(c2ccc(Br)cc2)CC1)c1ccccc1` [Compound K22, (Z)-N-[3-[4-(4-bromophenyl)-4-hydroxypiperidin-1-yl]-3-oxo-1-phenylprop-1-en-2-yl]benzamide, reference compound]: the values for the EC50 in the data set on HCoV-229E [2] (setting [9]) and in the data set on HCoV-229E [2] (setting [10]) were 3.6 ± 0.6 µM and 2.6 ± 0.5 µM, respectively. In the data set on HCoV-229E [2], the “Selectivity Index Microscopy” value came out at 19. The “inhibition of viral RNA synthesis” value with HCoV-229E [3] (setting [11]) worked out at 100%. The “Cytotoxicity MCC” value in data set [4] is 50 µM. Moreover, in the data set “in vitro [5]”, the CC50 was found to be 28 ± 3 µM.
Turning to `CC(C)C[C@H](NC(=O)OCc1ccccc1)C(=O)N[C@@H](C[C@@H]1CCNC1=O)C(O)S(=O)(=O)[O-].[Na+]` (some centres unmarked) [GC376], the “inhibition of viral RNA synthesis” value in the data set with HCoV-229E [3] ([…], 33 15 µM, GC376 25 µM, GS-441524 20 µM, K22 15 µM) was ~ 90%.
As for `N#C[C@@]1(c2ccc3c(N)ncnn23)O[C@H](CO)[C@@H](O)[C@H]1O` [GS-441524, reference compound], the EC50 in the data set with HCoV-229E [2] (setting [9]) came to 2.3 ± 0.2 µM. Moreover, in the data set on HCoV-229E [2] (setting [10]), the EC50 was 3.5 µM. Moreover, in the data set with HCoV-229E [2], the “Selectivity Index MTS” value is on record as more than 43 and the “Selectivity Index Microscopy” value is recorded as more than 29. Besides, in the data set with HCoV-229E [3] (setting [11]), the “inhibition of viral RNA synthesis” value is on record as ~ 90%. Further, in the data set with SARS-CoV-2, the “Antiviral activity EC99” value came to 4.6 µM and the 90% effect concentration (EC90) was 3.2 µM. In addition, the “Cytotoxicity MCC” value in [4] was more than 100 µM.
Regarding `CO/C1=C\C(C)=C\[C@@H](C)[C@@H](O)[C@@H](C)C/C(C)=C/C=C/[C@H](OC)[C@@H]([C@@H](C)[C@@H](O)[C@H](C)[C@@]2(O)C[C@@H](O)[C@H](C)[C@@H](C(C)C)O2)OC1=O` [bafilomycin], in the data set on HCoV-229E [3], the “inhibition of viral RNA synthesis” value turned out to be 9%.
